Laboratory results: article PMC4131897 (Biochemistry, 2014)
Where a chain is given by its changes, count along the chain named.

Legend:
Test in all cases: intrinsic tryptophan fluorescence quenching
Format in all cases: binding
[1] = biological target: T1, BjPutA (proline utilization A) (Bradyrhizobium diazoefficiens, UniProt Q89E26, D779Y)
T1 sequence (Q89E26 1-999 D779Y): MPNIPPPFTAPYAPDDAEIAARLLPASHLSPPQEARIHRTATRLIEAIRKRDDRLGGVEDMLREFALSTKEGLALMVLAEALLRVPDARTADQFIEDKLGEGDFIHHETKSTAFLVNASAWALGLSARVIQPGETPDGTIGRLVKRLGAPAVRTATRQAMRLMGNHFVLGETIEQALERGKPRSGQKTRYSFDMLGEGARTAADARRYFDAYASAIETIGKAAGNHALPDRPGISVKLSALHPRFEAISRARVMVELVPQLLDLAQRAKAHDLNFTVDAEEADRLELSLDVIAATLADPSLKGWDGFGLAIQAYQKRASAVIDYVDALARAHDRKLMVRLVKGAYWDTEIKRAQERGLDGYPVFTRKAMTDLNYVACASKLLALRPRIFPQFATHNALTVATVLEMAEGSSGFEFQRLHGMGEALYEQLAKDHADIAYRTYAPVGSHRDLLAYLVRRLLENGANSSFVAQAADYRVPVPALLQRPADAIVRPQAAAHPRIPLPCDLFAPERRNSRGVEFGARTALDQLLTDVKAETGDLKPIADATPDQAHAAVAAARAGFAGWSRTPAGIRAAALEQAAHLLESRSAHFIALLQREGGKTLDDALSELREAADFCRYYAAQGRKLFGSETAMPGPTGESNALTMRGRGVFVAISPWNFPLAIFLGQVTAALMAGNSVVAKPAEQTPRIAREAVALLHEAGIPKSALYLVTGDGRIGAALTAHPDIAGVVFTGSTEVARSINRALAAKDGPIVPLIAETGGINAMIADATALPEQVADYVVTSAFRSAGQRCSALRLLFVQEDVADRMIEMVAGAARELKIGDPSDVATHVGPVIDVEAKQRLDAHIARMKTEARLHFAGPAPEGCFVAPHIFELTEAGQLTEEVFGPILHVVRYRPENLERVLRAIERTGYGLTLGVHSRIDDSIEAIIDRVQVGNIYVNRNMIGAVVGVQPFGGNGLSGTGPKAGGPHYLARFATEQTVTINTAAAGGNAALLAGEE

[2] = biological target: T2, BjPutA (proline utilization A) (Bradyrhizobium diazoefficiens, UniProt Q89E26, S607Y)
T2 sequence (Q89E26 1-999 S607Y): T1 sequence (Q89E26 1-999 D779Y) with S607Y, Y779D

[3] = biological target: T3, BjPutA (proline utilization A) (Bradyrhizobium diazoefficiens, UniProt Q89E26, T348Y)
T3 sequence (Q89E26 1-999 T348Y): T1 sequence (Q89E26 1-999 D779Y) with T348Y, Y779D

`NC(=O)c1ccc[n+]([C@@H]2O[C@H](COP(=O)(O)OP(=O)(O)OC[C@H]3O[C@@H](n4cnc5c(N)ncnc54)[C@H](O)[C@@H]3O)[C@@H](O)[C@H]2O)c1` [NAD^+] was tested, and the Kd [1] was 650 ± 40 nM, the Kd [2] was 1000 ± 40 nM and the Kd [3] was 750 ± 60 nM.
